Source: patent US12517131B2, “Methods for labeling eukaryotic cells from a multicellular organism as well as for treating and/or diagnosing a cancer using modified monosaccharide compounds” (DIAMIDEX, priority 2019, dated 2026)

How the values were obtained:
[1] = system: Macrophage (primary cells); assay: In vitro cytotoxicity of Ara-N3 probe (Annexin V/IP, MTS); assay type: cell-based, human; conditions: tested 1, 10, 50 and 100 mM, 24 h and 48 h
Description: (§1) The cell lines (as detailed below in the table) were provided by Inserm/Aquiderm transfer cell. Cell culture of cell lines and cell cytoxicity tests were also carried out by Aquiderm transfer cell, in the laboratory of INSERM U1035.
Human mononucleated cells were isolated from peripheral blood from 2 different healthy donors by convention established with the Etablissement Frangais du Sang d'Aquitaine. The technique used was Ficoll gradient isolation. Briefly, the blood diluted in a phosphate buffered saline solution (PBS) was deposited on a sucrose solution (Ficoll, Eurobio) and centrifuged in order to separate the different blood elements. Between Ficoll and plasma was established a cell ring composed of monocytes and lymphocytes. This was recovered and washed in PBS for counting on the Malassez cell.
Human CD14+monocytes were isolated from […] by magnetic beads coupled to an anti-CD14 antibody (Miltenyi Biotech). The mononuclear cells were incubated for 15 minutes, in PBS buffer, in the presence of a determined concentration of beads depending on the number of cells. […]
Briefly, after incubation of the cells with the Ara-N3 probe at different concentrations and at different times (24 h and 48 h), the cells were recovered, trypsinized (for adherent cells) and washed in PBS. […] They were then directly analyzed by cytometry after adding 100 μL of labeling buffer. […]

[2] = system: A431 (tumoral cell lines); assay: as above; assay type: cell-based, human; conditions: tested 1, 10, 50 and 100 mM, 24 h and 48 h
Description: as §1
(§2) The cells were cultivated in an oven at 37° C., 5% CO2 and 95% humidity, in different culture media: • either in RPMI 1640 medium supplemented with 10% of decomplemented FCS (Fetal calf serum) and antibiotics penicillin (100 IU/ml) and […] (100 μg/ml), for the pair Monocytes/THP1. • either in DMEM medium supplemented with 10% of decomplemented FCS and antibiotics penicillin (100 IU/ml) and […] (100 μg/ml) for the Hacat/A431 couple.
(§3) All the cells were seeded in culture plates, either in 96 wells at the density of 1*10^4 cells/well for the MTS proliferation test, either in 24 wells at the density of 5*10^4 cells/well for the Annexin V test/IP test. Then the cells were incubated at 37° C. and 5% CO2 for 24 hours. After 24 hours, the culture medium was changed in all the wells and the cells adhered to the bottom of the wells were rinsed twice in PBS (Eurobio) or centrifuged and washed twice in PBS for the cells in suspension, before being exposed to the Ara-N3 probe at different concentrations: 1, 10, 50 and 100 mM. The cells were incubated at 37° C. and 5% CO2 for 48 hours.
(§4) This test requires the use of an Annexin V-APC kit (Biolegend) for the detection of apoptosis/necrosis. This test uses the ability of Annexin V to bind to membrane phosphatidylserines (PS) and the intercalating properties of propidium iodide (PI) on DNA.
(§5) Briefly, after incubation of the cells with the Ara-N3 probe at different concentrations and at different times (24 h and 48 h), the cells were recovered, trypsinized (for adherent cells) and washed in PBS. After counting in trypan blue on the Malassez cell, the cells were incubated in a labeling buffer (100 μL) in the presence of Annexin V-APC (5 μL) and of IP (10 μL) for 15 minutes at room temperature and in the dark. They were then directly analyzed by cytometry after adding 100 μL of labeling buffer. […]

[3] = system: HACAT (immortalized cell lines); assay: as above; assay type: cell-based, human; conditions: tested 1, 10, 50 and 100 mM, 24 h and 48 h
Description: as §1, §2, §3, §4, §5

[4] = system: THP1 (tumoral cell lines); assay: as above; assay type: cell-based, human; conditions: tested 1, 10, 50 and 100 mM, 24 h and 48 h
Description: as §1, §2, §3, §4, §5

[5] = In vivo non-toxicity of Ara-N3 in nude mice; set-up: species or system NMRI nude mice
Description: Ten Female NMRI nude mice (6 weeks old, Janvier, Le Genest-Saint Isle, France) were enrolled in this assay. Three were injected intravenously every other day for 8 days (4 injections) with 50 mg/mouse/injection of Ara-N3 for 200 mg cumulative dose, and three other mice were treated for 8 days with 50 mg of Ara-N3 in 8 mL of water consumed per day, for 400 mg cumulative dose. As control groups, four tumor-bearing mice were not treated.
Mice were euthanized and dissected at the end of treatment. Heart, lung, brain, uterus, ovaries, kidney, skeletal muscle, spleen, pancreas, abdominal fat, liver, skin, stomach, colon, caecum, small intestine, mesenteric lymph nodes, axillary lymph nodes, brachial lymph nodes and total blood were harvested and frozen for analyses.

[N-]=[N+]=NC[C@H]1OC(O)[C@@H](O)[C@@H]1O (stereo partly drawn) [Ara-N3, 5-azido-5-deoxy-D-arabinofuranose]
Non-toxic concentration of Ara-N3 [1]: >10 mM | Non-toxic concentration of Ara-N3 [2]: >10 mM | Non-toxic concentration of Ara-N3 [3]: >10 mM | Non-toxic concentration of Ara-N3 [4]: >10 mM | water consumption of the mice ([5]; Ara-N3 in drinking water up to 6.25 mg/mL, 8 days): did not alter the water consumption | Non-toxic concentration of Ara-N3 ([5]; In vivo, Nude mouse (mice)): >1 mM | body weight loss ([5]; in drinking water, 50 mg in 8 mL per day for 8 days, 400 mg cumulative dose): did not induce any body weight loss | body weight loss ([5]; intravenous injections, 50 mg/mouse/injection every other day for 8 days, 200 mg cumulative dose): did not induce any body weight loss
